Measured values: patent US10344060B2 (priority 2013, dated 2019)
Values joined by “and” are separate entries in the source; they are usually repeats but may differ in a detail not shown here. Equal entries are not always repeated.

Molecular target: hNav1.4 (Homo sapiens, UniProt P35499)
Assay: cell-based
Format: cell-based
Settings: Table 12; ratio of PX tonic IC50 values

hNav1.4, sequence (P35499 whole entry): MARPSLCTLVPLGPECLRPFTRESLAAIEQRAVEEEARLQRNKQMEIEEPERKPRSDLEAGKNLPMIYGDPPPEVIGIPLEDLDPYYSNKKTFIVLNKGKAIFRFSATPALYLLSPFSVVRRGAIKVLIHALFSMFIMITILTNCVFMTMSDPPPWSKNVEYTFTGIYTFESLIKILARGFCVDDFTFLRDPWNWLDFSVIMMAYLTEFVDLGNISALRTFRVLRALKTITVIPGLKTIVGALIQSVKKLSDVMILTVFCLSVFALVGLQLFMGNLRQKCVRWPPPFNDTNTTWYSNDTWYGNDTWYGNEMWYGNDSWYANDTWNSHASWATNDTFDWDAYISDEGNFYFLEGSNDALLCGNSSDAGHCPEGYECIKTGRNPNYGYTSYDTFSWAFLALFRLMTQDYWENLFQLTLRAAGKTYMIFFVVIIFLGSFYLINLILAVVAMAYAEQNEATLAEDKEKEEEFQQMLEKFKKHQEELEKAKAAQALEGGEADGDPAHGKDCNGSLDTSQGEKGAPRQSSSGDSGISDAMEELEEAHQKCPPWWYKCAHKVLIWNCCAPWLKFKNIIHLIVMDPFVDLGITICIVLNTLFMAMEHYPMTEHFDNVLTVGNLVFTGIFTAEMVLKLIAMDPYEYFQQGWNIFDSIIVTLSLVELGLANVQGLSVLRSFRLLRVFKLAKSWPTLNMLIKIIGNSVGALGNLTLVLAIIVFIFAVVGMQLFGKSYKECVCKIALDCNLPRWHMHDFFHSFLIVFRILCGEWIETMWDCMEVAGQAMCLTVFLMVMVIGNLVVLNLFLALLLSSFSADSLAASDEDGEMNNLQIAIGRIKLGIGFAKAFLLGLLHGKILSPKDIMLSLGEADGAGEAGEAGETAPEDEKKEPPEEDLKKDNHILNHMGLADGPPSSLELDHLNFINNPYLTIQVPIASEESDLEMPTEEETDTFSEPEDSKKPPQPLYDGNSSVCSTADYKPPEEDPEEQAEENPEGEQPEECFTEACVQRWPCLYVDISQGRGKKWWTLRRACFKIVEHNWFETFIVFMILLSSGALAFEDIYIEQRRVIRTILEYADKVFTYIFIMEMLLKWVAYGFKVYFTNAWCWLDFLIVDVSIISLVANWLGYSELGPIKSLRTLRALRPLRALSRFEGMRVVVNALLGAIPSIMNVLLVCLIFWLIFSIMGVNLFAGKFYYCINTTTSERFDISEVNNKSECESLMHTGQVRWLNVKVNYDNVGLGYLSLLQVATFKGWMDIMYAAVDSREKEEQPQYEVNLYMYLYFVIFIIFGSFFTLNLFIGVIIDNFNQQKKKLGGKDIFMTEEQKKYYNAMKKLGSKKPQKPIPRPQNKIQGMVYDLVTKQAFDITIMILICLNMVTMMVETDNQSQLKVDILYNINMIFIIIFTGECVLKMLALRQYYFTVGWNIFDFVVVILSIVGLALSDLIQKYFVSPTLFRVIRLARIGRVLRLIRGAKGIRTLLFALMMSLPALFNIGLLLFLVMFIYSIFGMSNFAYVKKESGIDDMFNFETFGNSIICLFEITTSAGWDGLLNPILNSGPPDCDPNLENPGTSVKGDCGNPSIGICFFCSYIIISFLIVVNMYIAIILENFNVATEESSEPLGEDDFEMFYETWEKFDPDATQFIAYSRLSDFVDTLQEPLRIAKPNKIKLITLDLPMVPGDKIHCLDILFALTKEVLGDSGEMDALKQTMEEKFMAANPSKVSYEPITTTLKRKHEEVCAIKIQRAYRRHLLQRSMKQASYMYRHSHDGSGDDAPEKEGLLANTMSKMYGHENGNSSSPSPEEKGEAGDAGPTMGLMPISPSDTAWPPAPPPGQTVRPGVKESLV

SMILES	Nav1.4/Nav1.7
C#CC[C@H](N)C(=O)NCCCC[C@@H]1NC(=O)[C@H](CCCNC(=N)N)NC(=O)[C@H](CCCCN)NC(=O)[C@H](CO)NC(=O)[C@H](CC(=O)O)NC(=O)[C@@H]2CSSC[C@@H]3NC(=O)[C@H](CCCNC(=N)N)NC(=O)[C@H](CC(C)C)NC(=O)CNC(=O)[C@H](CCC(=O)O)NC(=O)[C@H](CSSC[C@H](NC(=O)[C@H](Cc4ccc(O)cc4)NC(=O)[C@@H](N)CCC)C(=O)N[C@@H](CCC(N)=O)C(=O)N[C@@H](CCCCN)C(=O)N[C@@H](Cc4c[nH]c5ccccc45)C(=O)N[C@@H](CCCC)C(=O)N[C@@H](Cc4c[nH]c5ccccc45)C(=O)N[C@@H]([C@@H](C)O)C(=O)N2)NC(=O)[C@H](CSSC[C@@H](C(=O)N[C@@H](CCCNC(=N)N)C(=O)N[C@@H](CCCCN)C(=O)N[C@@H](CCC(=O)O)C(=O)N[C@H](C(N)=O)[C@@H](C)CC)NC(=O)[C@H](Cc2c[nH]c4ccccc24)NC(=O)[C@H](CC(C)C)NC(=O)[C@H](CCCCN)NC3=O)NC1=O [compound 435]	99
C#CC[C@H](N)C(=O)NCCCC[C@@H]1NC(=O)[C@H](CCCNC(=N)N)NC(=O)[C@H](CCCCN)NC(=O)[C@H](CO)NC(=O)[C@H](CC(=O)O)NC(=O)[C@@H]2CSSC[C@@H]3NC(=O)[C@H](CCCNC(=N)N)NC(=O)[C@H](CC(C)C)NC(=O)CNC(=O)[C@H](CCC(=O)O)NC(=O)[C@H](CSSC[C@H](NC(=O)[C@H](Cc4ccc(O)cc4)NC(=O)[C@@H](N)CCC)C(=O)N[C@@H](CCC(N)=O)C(=O)N[C@@H](CCCCN)C(=O)N[C@@H](Cc4c[nH]c5ccccc45)C(=O)N[C@@H](CC(C)C)C(=O)N[C@@H](Cc4c[nH]c5ccccc45)C(=O)N[C@@H]([C@@H](C)O)C(=O)N2)NC(=O)[C@H](CSSC[C@@H](C(=O)N[C@@H](CCCNC(=N)N)C(=O)N[C@@H](CCCCN)C(=O)N[C@H](C(=O)N[C@H](C(N)=O)[C@@H](C)CC)[C@@H](C)CC)NC(=O)[C@H](Cc2c[nH]c4ccccc24)NC(=O)[C@H](CC(C)C)NC(=O)[C@H](CCCCN)NC3=O)NC1=O [compound 438]	7
C#CC[C@H](N)C(=O)NCCOCCOCCOCCOCCC(=O)NCCCC[C@@H]1NC(=O)[C@H](CCCNC(=N)N)NC(=O)[C@H](CCCCN)NC(=O)[C@H](CO)NC(=O)[C@H](CC(=O)O)NC(=O)[C@@H]2CSSC[C@@H]3NC(=O)[C@H](CCCNC(=N)N)NC(=O)[C@H](CC(C)C)NC(=O)CNC(=O)[C@H](CCC(=O)O)NC(=O)[C@H](CSSC[C@H](NC(=O)[C@H](Cc4ccc(O)cc4)NC(=O)[C@@H](N)CCC)C(=O)N[C@@H](CCC(N)=O)C(=O)N[C@@H](CCCCN)C(=O)N[C@@H](Cc4c[nH]c5ccccc45)C(=O)N[C@@H](CCCC)C(=O)N[C@@H](Cc4c[nH]c5ccccc45)C(=O)N[C@@H]([C@@H](C)O)C(=O)N2)NC(=O)[C@H](CSSC[C@@H](C(=O)N[C@@H](CCCNC(=N)N)C(=O)N[C@@H](CCCCN)C(=O)N[C@H](C(=O)N[C@H](C(N)=O)[C@@H](C)CC)[C@@H](C)CC)NC(=O)[C@H](Cc2c[nH]c4ccccc24)NC(=O)[C@H](CC(C)C)NC(=O)[C@H](CCCCN)NC3=O)NC1=O [compound 432]	12
C#CC[C@H](N)C(=O)NCCCC[C@@H]1NC(=O)[C@H](CCCNC(=N)N)NC(=O)[C@H](CCCCN)NC(=O)[C@H](CO)NC(=O)[C@H](CC(=O)O)NC(=O)[C@@H]2CSSC[C@@H]3NC(=O)[C@H](CCC(=O)O)NC(=O)[C@H](CC(C)C)NC(=O)CNC(=O)[C@H](CCC(=O)O)NC(=O)[C@H](CSSC[C@H](NC(=O)[C@H](Cc4ccc(O)cc4)NC(=O)[C@@H](N)CC#N)C(=O)N[C@@H](CCC(N)=O)C(=O)N[C@@H](CCCCN)C(=O)N[C@@H](Cc4c[nH]c5ccccc45)C(=O)N[C@@H](CCCC)C(=O)N[C@@H](Cc4c[nH]c5ccccc45)C(=O)N[C@@H]([C@@H](C)O)C(=O)N2)NC(=O)[C@H](CSSC[C@@H](C(=O)N[C@@H](CCCNC(=N)N)C(=O)N[C@@H](CCCCN)C(=O)N[C@@H](Cc2ccc(O)cc2)C(=O)N[C@H](C(N)=O)[C@@H](C)CC)NC(=O)[C@H](Cc2c[nH]c4ccccc24)NC(=O)[C@H](CC(C)C)NC(=O)[C@H](CCCCN)NC3=O)NC1=O [compound 394]	19130

Same assay, conditions: Table 13; ratio of PX tonic IC50 values

SMILES	Nav1.4/Nav1.7
CCCC[C@@H]1NC(=O)[C@H](Cc2c[nH]c3ccccc23)NC(=O)[C@H](CCCCN)NC(=O)[C@H](CCC(N)=O)NC(=O)[C@@H](NC(=O)[C@@H](N)Cc2cn(CCCOCCOCCOCCOCCOCCOCCOCCOCCOCCOCCN)nn2)CSSC[C@@H]2NC(=O)[C@@H]3CSSC[C@@H](C(=O)N[C@@H](CCCNC(=N)N)C(=O)N[C@@H](CCCCN)C(=O)N[C@H](C(=O)N[C@H](C(N)=O)[C@@H](C)CC)[C@@H](C)CC)NC(=O)[C@H](Cc4c[nH]c5ccccc45)NC(=O)[C@H](CC(C)C)NC(=O)[C@H](CCCCN)NC(=O)[C@H](CSSC[C@H](NC(=O)[C@H]([C@@H](C)O)NC(=O)[C@H](Cc4c[nH]c5ccccc45)NC1=O)C(=O)N[C@@H](CC(=O)O)C(=O)N[C@@H](CO)C(=O)N[C@@H](CCCCN)C(=O)N[C@@H](CCCNC(=N)N)C(=O)N[C@@H](C)C(=O)N3)NC(=O)[C@H](CCC(=O)O)NC(=O)[C@H](CC(C)C)NC(=O)CNC(=O)[C@H](CCC(=O)O)NC2=O [compound 407]	85
CCCC[C@@H]1NC(=O)[C@H](Cc2c[nH]c3ccccc23)NC(=O)[C@H](CCCCN)NC(=O)[C@H](CCC(N)=O)NC(=O)[C@@H](NC(=O)[C@@H](N)Cc2ccc(O)cc2)CSSC[C@@H]2NC(=O)[C@@H]3CSSC[C@@H](C(=O)N[C@@H](CCCNC(=N)N)C(=O)N[C@@H](CCCCN)C(=O)N[C@@H](CCC(=O)O)C(=O)N[C@H](C(N)=O)[C@@H](C)CC)NC(=O)[C@H](Cc4c[nH]c5ccccc45)NC(=O)[C@H](CC(C)C)NC(=O)[C@H](CCCCN)NC(=O)[C@H](CSSC[C@H](NC(=O)[C@H]([C@@H](C)O)NC(=O)[C@H](Cc4c[nH]c5ccccc45)NC1=O)C(=O)N[C@@H](CC(=O)O)C(=O)N[C@@H](CO)C(=O)N[C@@H](CCCCN)C(=O)N[C@@H](CCCNC(=N)N)C(=O)N[C@@H](C)C(=O)N3)NC(=O)[C@H](CCCNC(=N)N)NC(=O)[C@H](CC(C)C)NC(=O)CNC(=O)[C@H](Cc1cn(CCCOCCOCCOCCOCCOCCOCCOCCOCCOCCOCCN)nn1)NC2=O [compound 406]	11
CCCC[C@@H]1NC(=O)[C@H](Cc2c[nH]c3ccccc23)NC(=O)[C@H](CCCCN)NC(=O)[C@H](CCC(N)=O)NC(=O)[C@@H](NC(=O)[C@H](Cc2ccc(O)cc2)NC(=O)[C@@H](N)Cc2cn(CCOCCOCCOCCOCCOCCOCCOCCOCCOCCOCCN)nn2)CSSC[C@@H]2NC(=O)[C@@H]3CSSC[C@@H](C(=O)N[C@@H](CCCNC(=N)N)C(=O)N[C@@H](CCCCN)C(=O)N[C@@H](CCC(=O)O)C(=O)N[C@H](C(N)=O)[C@@H](C)CC)NC(=O)[C@H](Cc4c[nH]c5ccccc45)NC(=O)[C@H](CC(C)C)NC(=O)[C@H](CCCCN)NC(=O)[C@H](CSSC[C@H](NC(=O)[C@H]([C@@H](C)O)NC(=O)[C@H](Cc4c[nH]c5ccccc45)NC1=O)C(=O)N[C@@H](CC(=O)O)C(=O)N[C@@H](CO)C(=O)N[C@@H](CCCCN)C(=O)N[C@@H](CCCNC(=N)N)C(=O)N[C@@H](C)C(=O)N3)NC(=O)[C@H](CCCNC(=N)N)NC(=O)[C@H](CC(C)C)NC(=O)CNC(=O)[C@H](CCC(=O)O)NC2=O [compound 883]	120
CCCC[C@@H]1NC(=O)[C@H](Cc2c[nH]c3ccccc23)NC(=O)[C@H](CCCCN)NC(=O)[C@H](CCC(N)=O)NC(=O)[C@@H](NC(=O)[C@H](Cc2ccc(O)cc2)NC(=O)[C@@H](N)Cc2cn(CCOCCOCCOCCOCCOCCOCCOCCOCCOCCOCCOCCOCCOCCOCCOCCOCCOCCOCCOCCOCCOCCOCCOCCNC(=O)c3cc(CNC(=O)CSCc4ccccc4)cc(C(=O)NCCOCCOCCOCCOCCOCCOCCOCCOCCOCCOCCOCCOCCOCCOCCOCCOCCOCCOCCOCCOCCOCCOCCOCCn4cc(C[C@H](N)C(=O)N[C@@H](Cc5ccc(O)cc5)C(=O)N[C@H]5CSSC[C@@H]6NC(=O)[C@@H]7CSSC[C@@H](C(=O)N[C@@H](CCCNC(=N)N)C(=O)N[C@@H](CCCCN)C(=O)N[C@H](C(=O)N[C@H](C(N)=O)[C@@H](C)CC)[C@@H](C)CC)NC(=O)[C@H](Cc8c[nH]c9ccccc89)NC(=O)[C@H](CC(C)C)NC(=O)[C@H](CCCCN)NC(=O)[C@H](CSSC[C@H](NC(=O)[C@H]([C@@H](C)O)NC(=O)[C@H](Cc8c[nH]c9ccccc89)NC(=O)[C@H](CCCC)NC(=O)[C@H](Cc8c[nH]c9ccccc89)NC(=O)[C@H](CCCCN)NC(=O)[C@H](CCC(N)=O)NC5=O)C(=O)N[C@@H](CC(=O)O)C(=O)N[C@@H](CO)C(=O)N[C@@H](CCCCN)C(=O)N[C@@H](CCCNC(=N)N)C(=O)N[C@@H](C)C(=O)N7)NC(=O)[C@H](CCCNC(=N)N)NC(=O)[C@H](CC(C)C)NC(=O)CNC(=O)[C@H](CCC(=O)O)NC6=O)nn4)c3)nn2)CSSC[C@@H]2NC(=O)[C@@H]3CSSC[C@@H](C(=O)N[C@@H](CCCNC(=N)N)C(=O)N[C@@H](CCCCN)C(=O)N[C@H](C(=O)N[C@H](C(N)=O)[C@@H](C)CC)[C@@H](C)CC)NC(=O)[C@H](Cc4c[nH]c5ccccc45)NC(=O)[C@H](CC(C)C)NC(=O)[C@H](CCCCN)NC(=O)[C@H](CSSC[C@H](NC(=O)[C@H]([C@@H](C)O)NC(=O)[C@H](Cc4c[nH]c5ccccc45)NC1=O)C(=O)N[C@@H](CC(=O)O)C(=O)N[C@@H](CO)C(=O)N[C@@H](CCCCN)C(=O)N[C@@H](CCCNC(=N)N)C(=O)N[C@@H](C)C(=O)N3)NC(=O)[C@H](CCCNC(=N)N)NC(=O)[C@H](CC(C)C)NC(=O)CNC(=O)[C@H](CCC(=O)O)NC2=O [Homodimeric Conjugate No. 2, Bis-{Atz(PEG23*)-[Nle6]JzTx-V(1-29)}-5-((2-(benzylthio)acetamido)methyl)isophthalamide]	5 and 3
